The values below come from US20080193402A1, “Depilatory Compositions” (priority 2005, published 2008).

A short description of the data set: 2AET storage stability at 40° C. in different packages. It counts as physicochemical. As to the method:
The single phase depilatory was then packaged into two separate containers. The first was an aluminum can with a bag-on-valve system, while the second was a standard high density polyethylene bottle.
The 2AET levels were evaluated at initial, 1 month and 3 months after storage at 40° C. to determine stability profiles.

For the compound `NCCS` [Example 2AET, 2-aminoethanethiol], the 2AET level runs as follows: (Example 13 single phase depilatory in HDPE (full), 1 month/40° C.) 6.7%; (Example 13 single phase depilatory in HDPE (full), 3 months/40° C.) 6.6%; (Example 13 single phase depilatory in HDPE (full), initial) 7.2%; (Example 13 single phase depilatory in HDPE (half), 1 month/40° C.) 6.3%; (Example 13 single phase depilatory in HDPE (half), 3 months/40° C.) 5.9%; (Example 13 single phase depilatory in HDPE (half), initial) 7.1%. The 2AET level reads like this: (Example 13 single phase depilatory in aluminum can with bag-on-valve, 1 month/40° C.) 7.3%; (Example 13 single phase depilatory in aluminum can with bag-on-valve, 3 months/40° C.) 7.3%; (Example 13 single phase depilatory in aluminum can with bag-on-valve, initial) 7.3%.
